Results reported in ChEMBL document CHEMBL1136666, “Indanyl piperazines as melatonergic MT2 selective agents” (Bioorg Med Chem Lett, 2003).

Key:
[1] = biological target: T1, Melatonin receptor type 1B (Homo sapiens, UniProt P49286); assay: In vitro receptor binding at MT2 (Melatonin) receptor.
T1 sequence (P49286 whole entry): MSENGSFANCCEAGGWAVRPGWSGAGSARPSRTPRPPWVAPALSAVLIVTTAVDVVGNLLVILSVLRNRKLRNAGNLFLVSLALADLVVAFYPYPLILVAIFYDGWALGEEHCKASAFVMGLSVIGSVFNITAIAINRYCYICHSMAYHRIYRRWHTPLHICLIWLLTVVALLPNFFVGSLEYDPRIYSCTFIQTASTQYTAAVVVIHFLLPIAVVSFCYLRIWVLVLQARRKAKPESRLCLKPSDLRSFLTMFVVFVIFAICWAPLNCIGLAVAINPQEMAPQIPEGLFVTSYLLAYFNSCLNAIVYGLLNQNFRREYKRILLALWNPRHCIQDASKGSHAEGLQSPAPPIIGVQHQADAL

[2] = biological target: Melatonin receptor type 1A (Homo sapiens, UniProt P48039); assay: In vitro receptor binding at MT1 (Melatonin) receptor.
[3] = biological target: T1, Melatonin receptor type 1B; assay: Effective concentration against human MT2 (Melatonin) receptor stably expressed in NIH3T3 cells in adenylyl cyclase assay; format: functional, cell-based

Chain of Melatonin receptor type 1A (P48039 whole entry): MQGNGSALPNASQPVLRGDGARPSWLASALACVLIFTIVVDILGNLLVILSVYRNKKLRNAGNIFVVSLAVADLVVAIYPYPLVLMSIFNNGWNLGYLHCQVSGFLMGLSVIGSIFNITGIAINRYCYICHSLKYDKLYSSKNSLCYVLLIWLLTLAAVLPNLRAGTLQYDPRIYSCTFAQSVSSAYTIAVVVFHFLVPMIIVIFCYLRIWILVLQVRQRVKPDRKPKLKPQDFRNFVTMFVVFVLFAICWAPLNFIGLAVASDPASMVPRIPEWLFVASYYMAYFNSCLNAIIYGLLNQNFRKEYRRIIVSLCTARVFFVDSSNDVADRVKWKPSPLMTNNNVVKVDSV

| Compound | IC50 [1] | IC50 [2] | EC50 [3] |
| --- | --- | --- | --- |
| COc1ccc(F)c(CN2CCN(C(=O)C3CC3)CC2)c1 | 270 nM | > 1000 nM | – |
| COc1ccc2c(c1)C(N1CCN(C(=O)C(C)C)CC1)CC2 (stereo unspecified) | 1.5 nM | 160 nM | – |
| CCC(=O)N1CCN(C2CCc3ccc(OC)cc32)CC1 (stereo unspecified) | 32 nM | > 1000 nM | – |
| COc1ccc(F)c(CN2CCN(C(=O)C(C)C)CC2)c1 | 224 nM | > 1000 nM | – |
| CCCC(=O)N1CCN(C2CCc3ccc(OC)cc32)CC1 (stereo unspecified) | 2.3 nM | > 1000 nM | – |
| COc1ccc2c(c1)[C@@H](N1CCN(C(=O)C(C)C)CC1)CC2 | > 1000 nM | > 1000 nM | – |
| COc1ccc2c(c1)C(N1CCN(C(=O)C3CC3)CC1)CC2 (stereo unspecified) | 3 nM | 156 nM | – |
| COc1ccc2c(c1)[C@H](N1CCN(C(=O)C(C)C)CC1)CC2 | 1.5 nM | 116 nM | – |
| COc1ccc(F)c(CN2CCN(C(C)=O)CC2)c1 | > 1000 nM | > 1000 nM | – |
| COc1ccc2cccc(N3CCN(C(=O)C4CC4)CC3)c2c1 | 90 nM | > 1000 nM | – |
| CCNC(=O)N1CCN(C2CCCc3ccc(OC)cc32)CC1 (stereo unspecified) | 94 nM | > 1000 nM | – |
| CCNC(=O)N1CCN(c2cccc3ccc(OC)cc23)CC1 | > 1000 nM | > 1000 nM | – |
| COc1ccc2c(c1)[C@H](N1CCN(C(=O)C3CC3)CC1)CC2 | 1.6 nM | 44.5 nM | – |
| CCNC(=O)N1CCN([C@H]2CCc3ccc(OC)cc32)CC1 | > 1000 nM | > 1000 nM | – |
| COc1ccc2c(c1)[C@@H](N1CCN(C(=O)C3CC3)CC1)CC2 | > 1000 nM | > 1000 nM | – |
| COc1ccc2c(c1)C(N1CCN(C(=O)C3CC3)CC1)CCC2 (stereo unspecified) | 75 nM | > 1000 nM | – |
| COc1ccc2c(c1)C(N1CCN(C(C)=O)CC1)CC2 (stereo unspecified) | 44 nM | > 1000 nM | – |
| CCCCC(=O)N1CCN(C2CCc3ccc(OC)cc32)CC1 (stereo unspecified) | 103 nM | > 1000 nM | – |
| CCNC(=O)N1CCN([C@@H]2CCc3ccc(OC)cc32)CC1 | 1.7 nM | 200 nM | 2.4 nM |
| CCNC(=O)N1CCN(C2CCc3ccc(OC)cc32)CC1 (stereo unspecified) | 3.1 nM | > 1000 nM | – |
